{"source": "ChEMBL document CHEMBL4177689", "about": "“In silico identification and in vivo characterization of small molecule therapeutic hypothermia mimetics” (Bioorg Med Chem, 2017)", "key": {"[1]": {"organism": "Rattus norvegicus", "assay": "Activation of CIRBP protein expression in rat R28 cells at 10 uM at 37 degC after 4 days by Western blot", "type": "functional, cell-based"}, "[2]": {"assay": "Cytotoxicity against rat R28 cells assessed as reduction in cell viability at 10 uM after 4 days by MTS assay", "type": "cell-based", "conditions": "96 h"}, "[3]": {"test_system": "Rattus norvegicus", "assay": "Up regulation of CIRBP protein expression in Sprague-Dawley albino rat testis at 20 nmol/kg, ip measured after 4 days post dose by Western blot analysis", "type": "functional, organism-based"}, "[4]": {"assay": "Cytotoxicity against rat R28 cells assessed as reduction in cell viability at 250 uM after 4 days by MTS assay", "type": "cell-based", "conditions": "96 h"}, "[5]": {"test_system": "Rattus norvegicus", "assay": "Up regulation of CIRBP protein expression in Sprague-Dawley albino rat lung at 20 nmol/kg, ip measured after 4 days post dose by Western blot analysis", "type": "functional, organism-based"}, "[6]": {"test_system": "Rattus norvegicus", "assay": "Up regulation of CIRBP protein expression in Sprague-Dawley albino rat retina at 20 nmol/kg, ip measured after 4 days post dose by Western blot analysis", "type": "functional, organism-based"}, "[7]": {"test_system": "Rattus norvegicus", "assay": "Up regulation of CIRBP protein expression in Sprague-Dawley albino rat colon at 20 nmol/kg, ip measured after 4 days post dose by Western blot analysis", "type": "functional, organism-based"}, "[8]": {"test_system": "Rattus norvegicus", "assay": "Up regulation of CIRBP protein expression in Sprague-Dawley albino rat subcutaneous fat tissue at 20 nmol/kg, ip measured after 4 days post dose by Western blot analysis", "type": "functional, organism-based"}, "[9]": {"test_system": "Rattus norvegicus", "assay": "Up regulation of CIRBP protein expression in Sprague-Dawley albino rat central nervous system at 20 nmol/kg, ip measured after 4 days post dose by Western blot analysis", "type": "functional, organism-based"}, "[10]": {"test_system": "Rattus norvegicus", "assay": "Up regulation of CIRBP protein expression in Sprague-Dawley albino rat heart at 20 nmol/kg, ip measured after 4 days post dose by Western blot analysis", "type": "functional, organism-based"}, "[11]": {"test_system": "Rattus norvegicus", "assay": "Up regulation of CIRBP protein expression in Sprague-Dawley albino rat brain cortex at 20 nmol/kg, ip measured after 4 days post dose by Western blot analysis", "type": "functional, organism-based"}, "[12]": {"test_system": "Rattus norvegicus", "assay": "Up regulation of CIRBP protein expression in Sprague-Dawley albino rat pancreas at 20 nmol/kg, ip measured after 4 days post dose by Western blot analysis", "type": "functional, organism-based"}}, "note": "Active and inactive are the calls of the source. The calls are words filed in the database; no cut-off is given here."}
{"molecule": "NC(=O)Oc1cccc(OC(N)=O)c1", "values": [{"measurement": "Activity", "setting": "[1]", "result": "inactive"}]}
{"molecule": "O=c1c(O)cccc2cc(O)c(O)c(O)c12", "note": "[PURPUROGALLIN]", "values": [{"measurement": "Activity", "setting": "[2]", "result": "Toxic"}]}
{"molecule": "COC(=O)CSc1nc(N)nc2c1ncn2Cc1ccccc1", "values": [{"measurement": "Activity", "setting": "[1]", "result": "Active"}]}
{"molecule": "Nc1ncnc2c1ncn2[C@@H]1O[C@H](CO)[C@H](O)[C@@H]1N", "values": [{"measurement": "Activity", "setting": "[1]", "result": "inactive"}]}
{"molecule": "COCCn1cnc2c(SCC(=O)OC)nc(N)nc21", "values": [{"measurement": "Activity", "setting": "[1]", "result": "inactive"}]}
{"molecule": "Oc1cccc(-c2cn(-c3ccc(O)c(F)c3)nn2)c1", "values": [{"measurement": "Activity", "setting": "[1]", "result": "Active"}]}
{"molecule": "CC(=O)N1C(=O)C2(NCC(C)N2)c2ccccc21", "note": "(stereo not given)", "values": [{"measurement": "Activity", "setting": "[1]", "result": "inactive"}]}
{"molecule": "COC(=O)CSc1nc(N)nc2c1ncn2Cc1ccc(OC)cc1", "values": [{"measurement": "Activity", "setting": "[1]", "result": "inactive"}]}
{"molecule": "O=C(NO)[C@@H](Cc1ccccc1)NS(=O)(=O)c1ccc(-n2cc(-c3ccc(Oc4ccccc4)cc3)nn2)cc1", "values": [{"measurement": "Activity", "setting": "[2]", "result": "Toxic"}]}
{"molecule": "Cc1cc(O)ccc1-n1cc(-c2cccc(O)c2)nn1", "values": [{"measurement": "Activity", "setting": "[1]", "result": "inactive"}]}
{"molecule": "C=CCn1cnc2c(SCC(=O)OC)nc(N)nc21", "values": [{"measurement": "Activity", "setting": "[1]", "result": "inactive"}]}
{"molecule": "OCc1ncccc1O", "values": [{"measurement": "Activity", "setting": "[1]", "result": "inactive"}]}
{"molecule": "O=C(/C=C/c1ccc(O)c(O)c1)OC1C(O)CC(OC(=O)/C=C/c2ccc(O)c(O)c2)(C(=O)O)CC1O", "note": "(stereo not given)", "values": [{"measurement": "Activity", "setting": "[2]", "result": "Toxic"}]}
{"molecule": "N=C(N)NC(=N)Nc1ccc(O)cc1", "values": [{"measurement": "Activity", "setting": "[1]", "result": "inactive"}]}
{"molecule": "COC(=O)CSc1nc(N)nc2c1ncn2CC1CC1", "values": [{"measurement": "Activity", "setting": "[1]", "result": "inactive"}]}
{"molecule": "Nc1nc(SCC(=O)O)c2ncn(Cc3ccccc3)c2n1", "values": [{"measurement": "Activity", "setting": "[1]", "result": "inactive"}]}
{"molecule": "COc1cccc2c1C(=O)c1c(O)c3c(c(O)c1C2=O)CC(O)(/C(C)=N/O)CC3CC1CC(N)C(O)C(C)O1", "note": "(stereo not given)", "values": [{"measurement": "Activity", "setting": "[2]", "result": "Toxic"}]}
{"molecule": "CCN(CC)CCn1cnc2c(SCC(=O)O)nc(N)nc21", "values": [{"measurement": "Activity", "setting": "[3]", "result": "Active"}, {"measurement": "Activity", "setting": "[4]", "result": "Non-Toxic"}, {"measurement": "Activity", "setting": "[5]", "result": "Active"}, {"measurement": "Activity", "setting": "[6]", "result": "inactive"}, {"measurement": "Activity", "setting": "[7]", "result": "Active"}, {"measurement": "Activity", "setting": "[8]", "result": "Active"}, {"measurement": "Activity", "setting": "[9]", "result": "inactive"}, {"measurement": "Activity", "setting": "[10]", "result": "Active"}, {"measurement": "Activity", "setting": "[11]", "result": "inactive"}, {"measurement": "Activity", "setting": "[12]", "result": "Active"}, {"measurement": "Activity", "setting": "[1]", "result": "Active"}]}
{"molecule": "COC(=O)CSc1nc(N)nc2c1ncn2CCO", "values": [{"measurement": "Activity", "setting": "[1]", "result": "inactive"}]}
{"molecule": "Oc1ccc(-c2cn(-c3ccc(O)c(C(F)(F)F)c3)nn2)cc1", "values": [{"measurement": "Activity", "setting": "[1]", "result": "Active"}]}
{"molecule": "Oc1cc(NCC2CCCCC2)c(O)cc1CNC1CCCCC1", "values": [{"measurement": "Activity", "setting": "[1]", "result": "inactive"}]}
{"molecule": "CC1(C)N=C(N)N=C(N)N1c1cccc(CN)c1", "values": [{"measurement": "Activity", "setting": "[1]", "result": "inactive"}]}
{"molecule": "COC(=O)C1C[C@@H](O)[C@@H](O)[C@@H](O)C1", "note": "(stereo not given in full)", "values": [{"measurement": "Activity", "setting": "[1]", "result": "inactive"}]}
{"molecule": "Cc1cc(-n2cc(-c3ccc(O)cc3)nn2)ccc1O", "values": [{"measurement": "Activity", "setting": "[1]", "result": "Active"}]}
{"molecule": "O=C(O)c1cc(-n2cc(-c3cccc(O)c3)nn2)ccc1O", "values": [{"measurement": "Activity", "setting": "[1]", "result": "inactive"}]}
